Experiments:
[1] = biological target: T1, human sphingosine-1-phosphate receptor 1 (S1P1) (Homo sapiens (Human), UniProt P21453); assay: β-Arrestin2 recruitment assay (PathHunter), S1P1 CHO-K1 cells; format: cell-based; details: for Emax: CHO-K1, read-out: hS1P1 B-arrestin2 SPAN; for hS1P1 B-arrestin2 pEC50: β-arrestin2 recruitment, S1P1 CHO-K1 cells
Outline: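 Enzyme-fragment complementation read-out: agonist-driven β-arrestin2 binding to ProLink-tagged human S1P1 in stable CHO-K1 cells restores β-galactosidase, measured 1 h at room temperature after a 60 min 37° C. compound incubation. Potency as pEC50, efficacy relative to fingolimod (SPAN).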
Target sequence in this assay (P21453 whole entry, looked up, the tested form may be a part): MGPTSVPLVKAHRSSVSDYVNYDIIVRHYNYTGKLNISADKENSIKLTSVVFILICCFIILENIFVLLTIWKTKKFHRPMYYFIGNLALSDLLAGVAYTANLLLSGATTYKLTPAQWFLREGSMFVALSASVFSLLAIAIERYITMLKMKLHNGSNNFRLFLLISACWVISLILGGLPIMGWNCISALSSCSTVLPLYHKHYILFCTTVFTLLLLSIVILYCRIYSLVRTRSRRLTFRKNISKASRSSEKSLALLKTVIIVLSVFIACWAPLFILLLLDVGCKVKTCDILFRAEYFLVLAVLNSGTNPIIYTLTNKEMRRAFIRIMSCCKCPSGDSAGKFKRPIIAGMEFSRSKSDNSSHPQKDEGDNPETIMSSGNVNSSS
Target sequence in this assay (P32121 whole entry partner, looked up, the tested form may be a part): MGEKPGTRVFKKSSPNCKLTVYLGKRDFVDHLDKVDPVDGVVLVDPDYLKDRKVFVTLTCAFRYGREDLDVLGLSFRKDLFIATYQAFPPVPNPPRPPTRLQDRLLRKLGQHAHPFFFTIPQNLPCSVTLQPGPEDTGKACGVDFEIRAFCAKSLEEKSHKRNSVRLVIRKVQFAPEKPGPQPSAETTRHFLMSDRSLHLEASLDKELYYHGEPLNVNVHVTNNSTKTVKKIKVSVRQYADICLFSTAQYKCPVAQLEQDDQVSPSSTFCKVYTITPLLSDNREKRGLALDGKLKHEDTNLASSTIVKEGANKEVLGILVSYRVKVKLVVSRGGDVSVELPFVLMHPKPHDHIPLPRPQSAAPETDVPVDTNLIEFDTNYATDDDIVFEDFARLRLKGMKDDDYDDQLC

[2] = biological target: human sphingosine-1-phosphate receptor 2 (S1P2) (Homo sapiens (Human), UniProt O95136); assay: Inositol monophosphate production (IP-one TB kit), S1P2 CHO-K1 cells; format: cell-based; details: for hS1P2 IP-one pEC50: inositol monophosphate accumulation
Sequence of human sphingosine-1-phosphate receptor 2 (S1P2) (O95136 whole entry): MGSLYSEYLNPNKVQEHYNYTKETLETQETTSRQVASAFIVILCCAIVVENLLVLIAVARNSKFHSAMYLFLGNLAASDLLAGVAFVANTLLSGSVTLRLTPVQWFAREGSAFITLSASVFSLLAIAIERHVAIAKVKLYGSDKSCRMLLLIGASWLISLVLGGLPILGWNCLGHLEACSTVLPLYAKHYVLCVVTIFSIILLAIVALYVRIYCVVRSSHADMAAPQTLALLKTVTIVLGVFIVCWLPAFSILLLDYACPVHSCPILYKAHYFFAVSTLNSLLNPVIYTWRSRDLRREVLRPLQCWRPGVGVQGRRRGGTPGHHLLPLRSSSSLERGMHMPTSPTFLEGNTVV
Experimental: (§1) Stable clonal Chinese hamster ovary K1 (CHO-K1) cells co-expressing EA-β-arrestin2 and the human sphingosine-1-phosphate receptor 2 (NM_004230.3, S1P2), human sphingosine-1-phosphate receptor 3 (NM_005226, S1P3) and sphingosine-1-phosphate receptor 5 (NM_001166215.1, S1P5) with a C-terminal Prolink™ tag were purchased from DiscoverX corporation (S1P2: Cat #93-0256C2, S1P3: Cat #93-0217C2, S1P5: Cat #93-0583C2).
(§2) Cell lines were cultured in AssayComplete™ Media 6 (DiscoverX Corporation, Cat #: 920018GF2) at 37° C. and 5% CO2 in a humidified CO2 and temperature-controlled incubator. To begin assay plating, cells were washed with dulbecco's phosphate buffered saline (CellGro, Cat #: 21-031-CV) and lifted from the culturing flask by incubation (37° C., 5 min) with CellStripper (Cellgro, Cat #: 25-056-CI). […] Plated cells were incubated overnight at 37° C. and 5% CO2 in a humidified CO2 and temperature-controlled incubator.
S1P2 Agonist-promoted G-protein responses were determined by measuring changes in intracellular inositol monophosphate using the IP-one TB kit (CisBio, Cat #: 62IPAPEJ) based on time-resolved fluorescence resonance energy transfer (TR-FRET) technology. AssayComplete™ Cell Plating 2 Reagent was removed and replaced with 1× IP-one stimulation buffer (as per manufacturer's instructions) along with test or control compounds at the desired concentrations. Following a 60-minute incubation at 37° C. and 5% CO2 in a humidified CO2 and temperature-controlled incubator, the components of the IP-one TB kit were added as per the manufacturer's instructions. After an hour incubation at room temperature, plates were analyzed by a BMG PheraStar microplate reader.
(§3) The tables below include the efficacy of the compound as compared to a positive control, referred to as “SPAN”. These values are normalized to fingolimod, a known agonist of the sphingosine-1-phosphate 3 and 5 receptor or CYM5520, a known agonist of the sphingosine-1-phosphate 2 receptor. The tables also include potency values (pEC50) for modulating discrete receptor-mediated activities (inhibition of cAMP production or inositol monophosphate accumulation).

[3] = biological target: sphingosine-1-phosphate receptor 5 (S1P5) (Homo sapiens (Human), UniProt Q9H228); assay: Inhibition of cAMP production (HTRF), S1P5 CHO-K1 cells; format: cell-based; details: for hS1P5 cAMP pEC50: inhibition of cAMP production
Sequence of sphingosine-1-phosphate receptor 5 (S1P5) (Q9H228 whole entry): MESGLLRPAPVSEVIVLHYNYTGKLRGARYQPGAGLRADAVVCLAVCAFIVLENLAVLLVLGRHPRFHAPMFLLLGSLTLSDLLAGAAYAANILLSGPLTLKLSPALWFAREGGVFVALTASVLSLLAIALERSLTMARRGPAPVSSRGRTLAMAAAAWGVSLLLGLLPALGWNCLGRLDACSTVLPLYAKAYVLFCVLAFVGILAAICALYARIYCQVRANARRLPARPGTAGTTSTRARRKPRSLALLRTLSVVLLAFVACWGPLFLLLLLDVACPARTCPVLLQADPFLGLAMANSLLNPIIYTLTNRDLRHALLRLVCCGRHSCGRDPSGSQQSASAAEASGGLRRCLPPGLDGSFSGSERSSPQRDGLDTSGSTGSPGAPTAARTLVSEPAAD
Experimental: as §1, §2
(§4) S1P3 and S1P5 Agonist-promoted G-protein responses were determined by measuring changes in intracellular cAMP using the HTRF® cAMP HiRange kit (CisBio, Cat #: 62AM6PEJ) based on time-resolved fluorescence resonance energy transfer (TR-FRET) technology. […] Following a 30-minute room temperature incubation the components of the cAMP HiRange kit were added as per the manufacturer's instructions. After an hour incubation at room temperature, plates were analyzed by a BMG PheraStar microplate reader.
as §3

[4] = biological target: human sphingosine-1-phosphate receptor 3 (S1P3) (Homo sapiens (Human), UniProt Q99500); assay: Inhibition of cAMP production (HTRF), S1P3 CHO-K1 cells; format: cell-based; details: for hS1P3 cAMP pEC50: inhibition of cAMP production
Sequence of human sphingosine-1-phosphate receptor 3 (S1P3) (Q99500 whole entry): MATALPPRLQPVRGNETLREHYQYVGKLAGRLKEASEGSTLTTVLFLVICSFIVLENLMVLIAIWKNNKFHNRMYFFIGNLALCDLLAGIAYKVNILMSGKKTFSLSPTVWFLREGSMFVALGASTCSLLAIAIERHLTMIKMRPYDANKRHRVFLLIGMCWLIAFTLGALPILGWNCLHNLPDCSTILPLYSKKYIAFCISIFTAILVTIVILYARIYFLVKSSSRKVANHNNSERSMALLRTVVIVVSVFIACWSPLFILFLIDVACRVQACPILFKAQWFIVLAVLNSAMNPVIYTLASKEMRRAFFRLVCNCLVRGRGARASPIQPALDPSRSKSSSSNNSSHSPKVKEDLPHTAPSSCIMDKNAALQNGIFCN
Experimental: as §1, §2, §4, §3

[5] = biological target: T1, human sphingosine-1-phosphate receptor 1 (S1P1); assay: Inhibition of cAMP production (HTRF cAMP HiRange), S1P1 CHO-K1 cells; format: cell-based; details: for Emax: CHO-K1, read-out: hS1P1 cAMP SPAN; for hS1P1 cAMP pEC50: inhibition of cAMP production, S1P1 CHO-K1 cells
Outline: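 CHO-K1 cells stably co-expressing human S1P1 (C-terminal Prolink tag) and EA-β-arrestin2 were grown in AssayComplete Media 6 at 37° C. and 5% CO2, plated, and incubated overnight. Agonist-driven inhibition of intracellular cAMP was read by TR-FRET with the HTRF cAMP HiRange kit on a PheraStar reader. Potency is pEC50, and efficacy (SPAN) is normalized to fingolimod.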
Target sequence in this assay (P21453 whole entry, looked up, the tested form may be a part): as the sequence (P21453 whole entry, looked up, the tested form may be a part) above

[6] = test system: paclitaxel induced peripheral neuropathy; assay: Reversal of allodynia induced by paclitaxel in mice (s.c. or p.o., von Frey frequency method); format: in vivo, c57bl/6 mice; details: Mus musculus; for inhibition in vivo at 1 mg/kg: sc, 0.5 h, 1 mg/kg s.c., tested 30 min after dosing, read-out: Screen @ 1 mg/kg sc (% MPE); for inhibition in vivo at 3 mg/kg: po, 1 h, 3 mg/kg p.o., tested 60 min after dosing, read-out: Screen @ 3 mg/kg po (% MPE)
Experimental: Compounds were tested for efficacy in mouse models of chemotherapy induced peripheral neuropathy. […] For these studies […]/6 mice are habituated to the test environment and baseline measurements of pain sensitivity are assessed. To determine mechanical responses, the threshold for responses to punctate mechanical stimuli (mechanical hyperalgesia) was tested according to the frequency method. In brief, the plantar surface of the animal hindpaw was stimulated with a single von Frey monofilament (0.4 g) for approximately 1-2 seconds. If there was a withdrawal response, it was recorded as a positive response. A response was defined as a lifting or shaking of the paw upon stimulation. This was repeated ten times for each mouse. The final measurement for each mouse is the % non-response to stimulation for the ten trials. The % non-response to stimulation is converted to a % MPE. For paclitaxel induced peripheral neuropathy, a series of injections of PAC (6 mg/kg, i.p.) on days 1, 3, 5 and 7 is used to induce peripheral neuropathy. After approximately 14 days from the initiation of PAC injections, animals are re-assessed for mechanical sensitivity. […] On test day animals are dosed with compounds either subcutaneously or orally and tested for mechanical response by the frequency method either 30 min (s.c.) or 60 min (p.o.) after drug administration. Data is presented as a % MPE. For oxaliplatin induced peripheral neuropathy, a series of injections of OXA (4 mg/kg, i.p.) on days 1-5 is used to induce peripheral neuropathy. After approximately 14 days from the initiation of PAC injections, animals are re-assessed for mechanical sensitivity. […] On test day animals are dosed with compounds subcutaneously and tested for mechanical response by the frequency method 30 min after drug administration. Data is presented as a % MPE. One or more of the compounds show reversal of chemotherapeutic induced peripheral neuropathy.

[7] = efficacy (SPAN) normalized to fingolimod
[8] = efficacy normalized to fingolimod

Row | SMILES | hS1P1 B-arrestin2 pEC50 [1] | hS1P2 IP-one pEC50 [2] | hS1P5 cAMP pEC50 [3] | hS1P3 cAMP pEC50 [4] | hS1P1 cAMP pEC50 [5] | other results
1 | C=CCNc1ccc(-c2nc(-c3ccc4[nH]ncc4c3)no2)cc1C#N [Compound 141, 5-(3-(1H-indazol-5-yl)-1,2,4-oxadiazol-5-yl)-2-(allylamino)benzonitrile] | >5 | <5.0 | >5.0 | >5.0 | >6.5 | Emax [1, 7]: > 75%; Emax ([2]; CHO-K1, efficacy normalized to CYM5520, read-out: hS1P2 IP-one SPAN): < 50%; Emax ([3]; CHO-K1, efficacy normalized to fingolimod, read-out: hS1P5 cAMP SPAN): > 50%; Emax ([4]; CHO-K1, efficacy normalized to fingolimod, read-out: hS1P3 cAMP SPAN): > 50%; Emax [5, 7]: > 75%
2 | CC(C)Nc1ccc(-c2nc(-c3ccc4oc(=O)[nH]c4c3)no2)cc1C#N [Compound 422, 2-(isopropylamino)-5-(3-(2-oxo-2,3-dihydrobenzo[d]oxazol-5-yl)-1,2,4-oxadiazol-5-yl)benzonitrile] | >5 | >5.0 |  | >5.0 | >6.5 | 
3 | Cc1ccncc1-c1noc(-c2ccc3c(c2)nnn3C2CCC2)n1 [Compound 417, 1-cyclobutyl-5-[3-(4-methylpyridin-3-yl)-1,2,4-oxadiazol-5-yl]-1H-1,2,3-benzotriazole] | >5 | >5.0 | <5.0 | <5.0 | >6.5 | 
4 | CCC1(CC)CC(=O)c2cc(-c3nc(-c4ccc5[nH]ncc5c4)no3)ccc2O1 [Compound 152, 6-(3-(1H-indazol-5-yl)-1,2,4-oxadiazol-5-yl)-2,2-diethylchroman-4-one] | >5 | <5.0 | <5.0 | <5.0 | <6.5 | hS1P1 B-arrestin2 SPAN [1, 7]: >75; hS1P2 IP-one SPAN ([2]; efficacy normalized to CYM5520): <50; hS1P5 cAMP SPAN [3, 8]: <50; hS1P3 cAMP SPAN [4, 8]: <50; hS1P1 cAMP SPAN [5, 7]: >75
5 | CC(C)n1nnc2cc(-c3nc4c(o3)Cc3ccccc3-4)ccc21 [Compound 219, 5-{8H-indeno[1,2-d][1,3]oxazol-2-yl}-1-(propan-2-yl)-1H-1,2,3-benzotriazole] | >5 | >5.0 | <5.0 | <5.0 | >6.5 | 
6 | COc1cnccc1-c1nc(-c2ccc3c(ccn3C(C)C)c2)no1 [Compound 391, 3-(1-isopropyl-1H-indol-5-yl)-5-(3-methoxypyridin-4-yl)-1,2,4-oxadiazole] | >5 | >5.0 | >5.0 | >5.0 | >6.5 | 
7 | CCC1(CC)CC(=O)c2cc(-c3nc(-c4ccc5[nH]c(=O)oc5c4)no3)ccc2O1 [Compound 445, 6-(5-(2,2-diethyl-4-oxochroman-6-yl)-1,2,4-oxadiazol-3-yl)benzo[d]oxazol-2(3H)-one] | >5 | >5.0 |  | <5.0 | >6.5 | 
8 | CC(C)Nc1ccc(-c2nc(-c3ccc4c(c3)NC(=O)C4)no2)cc1C#N [Compound 496, 2-(isopropylamino)-5-(3-(2-oxoindolin-6-yl)-1,2,4-oxadiazol-5-yl)benzonitrile] | >5 | <5.0 |  | <5.0 | >6.5 | 
9 | COc1ccccc1-c1nc(-c2ccc3c(ccn3C(C)C)c2)no1 [Compound 398, 3-(1-isopropyl-1H-indol-5-yl)-5-(2-methoxyphenyl)-1,2,4-oxadiazole] | >5 | <5.0 | <5.0 | <5.0 | >6.5 | 
10 | COc1ccccc1-c1nnc(-c2ccc3c(c2)oc(=O)n3C)o1 [Compound 406, 6-[5-(2-methoxyphenyl)-1,3,4-oxadiazol-2-yl]-3-methyl-2,3-dihydro-1,3-benzoxazol-2-one] | >5 | <5.0 | <5.0 | <5.0 | >6.5 | 
11 | CC(C)Nc1ccc(-c2nc(-c3ccc4c(c3)CC(=O)N4)no2)cc1C#N [Compound 107, 2-(isopropylamino)-5-(3-(2-oxoindolin-5-yl)-1,2,4-oxadiazol-5-yl)benzonitrile] | >5 |  |  |  | >6.5 | inhibition in vivo at 1 mg/kg [6]: < 50%; Emax [1, 7]: > 75%; Emax [5, 7]: > 75%
12 | N#Cc1cc(-c2nc(-c3ccc4c(c3)CCC(=O)N4)no2)ccc1NCC(F)(F)F [Compound 472, 5-[3-(2-oxo-1,2,3,4-tetrahydroquinolin-6-yl)-1,2,4-oxadiazol-5-yl]-2-[(2,2,2-trifluoroethyl)amino]benzonitrile] | >5 |  |  |  | >6.5 | inhibition in vivo at 3 mg/kg [6]: > 50%
13 | C=CCNc1ccc(-c2nc(-c3ccc4c(c3)CC(=O)N4)no2)cc1C#N [Compound 224, 2-(allylamino)-5-(3-(2-oxoindolin-5-yl)-1,2,4-oxadiazol-5-yl)benzonitrile] | >5 |  |  |  | >6.5 | inhibition in vivo at 1 mg/kg [6]: > 50%; Emax [1, 7]: > 75%; Emax [5, 7]: > 75%
14 | CCC1(CC)CC(=O)c2cc(-c3nc(-c4ccc(NC(C)=O)cc4OC(F)(F)F)no3)ccc2O1 [Compound 584, N-{4-[5-(2,2-diethyl-4-oxo-3,4-dihydro-2H-1-benzopyran-6-yl)-1,2,4-oxadiazol-3-yl]-3-(trifluoromethoxy)phenyl}acetamide] | >5 |  |  |  | >6.5 | inhibition in vivo at 3 mg/kg [6]: > 50%; Emax [1, 7]: > 75%; Emax [5, 7]: > 75%

Reference: patent publication US11912693B2, “Compounds for modulating S1P1 activity and methods of using the same” (TREVENA, INC., priority 2017, dated 2024)
